Reference: PubChem BioAssay (NCI)
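Each compound was tested at five concentrations against cells in 96-well plates for 48 hours. The concentration for full growth arrest is given as TGI.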 Where a SMILES comes first, the peptide text is derived from it. [ ]: non-standard residue; d: D form. The star is where a group is joined. NMeF = CN[CH](Cc1ccccc1)C(=O)O; NMeV = CN[CH](C(=O)O)C(C)C; Boc = CC(C)(C)OC(=O)*

Assays:
Experiment in all cases: NCI-60 cell line screen, 48 h
SF-295 CNS = tested on: SF-295 CNS
NCI-H23 lung = tested on: NCI-H23 lung
KM12 colon = tested on: KM12 colon
OVCAR-8 ovarian = tested on: OVCAR-8 ovarian
SK-OV-3 ovarian = tested on: SK-OV-3 ovarian
M14 melanoma = tested on: M14 melanoma
786-0 renal = tested on: 786-0 renal
EKVX NSCLC = tested on: EKVX NSCLC
OVCAR-4 ovarian = tested on: OVCAR-4 ovarian
HOP-62 NSCLC = tested on: HOP-62 NSCLC
MOLT-4 leukemia = tested on: MOLT-4 leukemia
NCI/ADR-RES ovarian = tested on: NCI/ADR-RES ovarian
BT-549 breast = tested on: BT-549 breast
COLO 205 colon = tested on: COLO 205 colon

SMILES	TGI (SF-295 CNS)	TGI (NCI-H23 lung)	TGI (KM12 colon)	TGI (OVCAR-8 ovarian)	TGI (SK-OV-3 ovarian)	TGI (M14 melanoma)	TGI (786-0 renal)	TGI (EKVX NSCLC)	TGI (OVCAR-4 ovarian)	TGI (HOP-62 NSCLC)	TGI (MOLT-4 leukemia)	TGI (NCI/ADR-RES ovarian)	TGI (BT-549 breast)	TGI (COLO 205 colon)
O=C1/C(=N/O)Cc2c(Br)ccc(Br)c21	> 100 µM	> 100 µM	> 100 µM	> 100 µM	> 100 µM	> 100 µM	> 100 µM	> 100 µM	> 100 µM	> 100 µM	82.4 µM	> 100 µM		
O=C(NI1OC(=O)c2ccccc21)c1ccc(Cl)cc1	> 100 µM	> 100 µM	> 100 µM	> 100 µM	> 100 µM	> 100 µM	> 100 µM	> 100 µM	> 100 µM	> 100 µM		> 100 µM	> 100 µM	> 100 µM
COc1ccc(C2OC[C@H]3O[C@@H](OCc4ccccc4)[C@H](O)[C@@H](O)[C@@H]3O2)cc1 (some centres undefined)	> 100 µM	> 100 µM		> 100 µM	> 100 µM			> 100 µM	> 100 µM	> 100 µM	> 100 µM	> 100 µM	> 100 µM	> 100 µM
O=C(O)c1ccc([N+](=O)[O-])c2cc3cnccc3nc12	> 100 µM	62.9 µM	44.4 µM	48.9 µM	> 100 µM	37.2 µM				> 100 µM	29.7 µM	80.9 µM	33.5 µM	40.4 µM
COc1cc(Cn2c3c(c4cc(O)ccc42)Cc2ccccc2C3=O)cc(OC)c1	93.9 µM	> 100 µM	> 100 µM	> 100 µM	> 100 µM	> 100 µM	> 100 µM		> 100 µM	> 100 µM	> 100 µM	66.1 µM	> 100 µM	> 100 µM
CC1OC(OC2C(O[C@H]3CC[C@@]4(C)C(=CC[C@H]5[C@@H]6C[C@@H]7O[C@]8(CC[C@@H](CO)CO8)[C@@H](C)[C@@H]7[C@@]6(C)CC[C@@H]54)C3)OC(CO)C(O)C2OC2OC(CO)C(O)C(O)C2O)C(O)C(O)C1O (some centres undefined)		4.07 µM	3.57 µM	3.46 µM	4.19 µM	4.14 µM	3.3 µM	3.96 µM	3.69 µM	3.21 µM		3.76 µM		3.42 µM
CCCN1CCC(=O)N(CCC(F)(F)C(F)(F)C(F)(F)C(F)(F)C(F)(F)C(F)(F)F)C1=S	> 100 µM	> 100 µM	> 100 µM	> 100 µM	> 100 µM	> 100 µM	> 100 µM	> 100 µM	> 100 µM	> 100 µM	> 100 µM		> 100 µM	> 100 µM
CCOC(=O)CC1(C(=O)OCC)c2[nH]c3ccccc3c2CCN1Cc1ccccc1 (centres undefined)	32.8 µM	33 µM	40.1 µM	78.7 µM	> 100 µM	35.8 µM	31.8 µM	50.8 µM	55.2 µM	33.6 µM	49.1 µM			34.3 µM
CC(C)C(NC(=O)OC(C)(C)C)C(=O)N(C)C(Cc1ccccc1)C(=O)N(C)C(C(=O)O)C(C)C (stereo not drawn) (Boc-Val-[NMeF]-[NMeV]-OH; configuration not given here)	> 100 µM	> 100 µM	> 100 µM	> 100 µM	> 100 µM	> 100 µM	> 100 µM	> 100 µM		> 100 µM	> 100 µM			> 100 µM
O=Cc1c(C(=O)O)[nH]c(=O)[nH]c1=O	> 100 µM	> 100 µM	> 100 µM	> 100 µM	> 100 µM	> 100 µM	> 100 µM	> 100 µM			> 100 µM	> 100 µM	> 100 µM	> 100 µM
N=C(N)c1ccc(C(NC(=O)CNS(=O)(=O)c2ccc3ccccc3c2)P(=O)(Oc2ccccc2)Oc2ccccc2)cc1 (centres undefined)		> 100 µM	> 100 µM	> 100 µM	> 100 µM	> 100 µM	> 100 µM		> 100 µM	> 100 µM	92.4 µM	> 100 µM	66.2 µM	> 100 µM
Cc1cccc(N=NC(=O)NNc2cccc(C)c2C)c1C		> 100 µM		> 100 µM		> 100 µM	86 µM		> 100 µM	86.7 µM			> 100 µM	
C1=CC2SSSC2C1 (centres undefined)	> 100 µM	> 100 µM	> 100 µM	> 100 µM	> 100 µM	> 100 µM	> 100 µM	> 100 µM	> 100 µM	> 100 µM	> 100 µM			> 100 µM
COc1ccccc1/C=C1\SC(=S)N(/C=C2\C(=O)Oc3ccccc3C2=O)C1=O		10.1 µM	> 100 µM	> 100 µM	76 µM	> 100 µM	> 100 µM	60.2 µM	> 100 µM		> 100 µM	> 100 µM	80.9 µM	50.4 µM
NC(N)=N/N=C/c1c[nH]c2ccccc12	> 100 µM	> 100 µM	> 100 µM	> 100 µM	> 100 µM	> 100 µM	> 100 µM	> 100 µM	> 100 µM	> 100 µM	> 100 µM			> 100 µM
CCN(CC)CCNc1nc2ccc([N+](=O)[O-])cc2[n+]([O-])n1	82.1 µM	47.4 µM	> 100 µM	43.1 µM		41.2 µM	> 100 µM		26.5 µM		50.6 µM	70.5 µM	> 100 µM	18.6 µM
Cc1c(S(=O)(=O)/N=C(\NO)Nc2ccc(Cl)c(Cl)c2)sc2ccc(Cl)cc12	33.6 µM	36.6 µM	38.6 µM	46.6 µM		44.1 µM	39.6 µM	27.4 µM	32.3 µM	42.3 µM	> 100 µM	41.7 µM	34 µM	35.7 µM
O=P(Nc1ccc(Cl)cc1)(Oc1ccccc1)N(CCCl)CCCl (centres undefined)	> 100 µM	> 100 µM	> 100 µM	> 100 µM	> 100 µM	> 100 µM		> 100 µM	> 100 µM	> 100 µM	> 100 µM			> 100 µM
